Literature values, collected in US9034622B2, “Preparation for photodynamic control of microorganisms and use thereof” (priority 2004, dated 2015).

Experiments:
[1] = tested on: reperfusion-induced damage or the extent of the myocardial infarct; settings: intravenous glutathione administration; pigs pre-treated with glutathione synthesis inhibitor; ischemia/reperfusion
isolated perfused heart = settings: perfusate enriched with GSH

N[C@@H](CCC(=O)N[C@@H](CS)C(=O)NCC(=O)O)C(=O)O [glutathione, Glutathione]
reperfusion-induced damage or extent of the myocardial infarct [1]: could be reduced
recovery of ventricle function after ischemia and reperfusion (isolated perfused heart): better recovery of ventricle function
